Source: US7432397B2, “Imaging compounds” (Hammersmith Imanet Ltd., priority 2002, dated 2008)

Experiment: Metabolite analysis of plasma and brain tissue (SPE/HPLC)
Format: in vivo, rat
Conditions: for parent compound as share of the radioactivity in brain: rat brain; for percentage of radioactivity associated with parent: rat plasma
Experimental: Sixteen adult male Sprague-Dawley rats (body weight 250-320 g: mean±SD=288±25 g) were used in 5 separate experiments. Each rat was injected with ˜13 MBq Compound 1, at a specific activity of […], via a previously catheterised tail vein. The associated stable compound was 0.5±0.2 nmol/kg. Discrete samples of arterial blood were collected from 9 of the rats via a previously catheterised tail artery.
Plasma samples were injected directly onto a solid phase extraction (SPE) column (C18), with di-ammonium hydrogen phosphate (0.1 M) mobile phase, and the retained radioactivity subsequently injected onto a reverse phase HPLC column (300×7.8 mm i.d., p-Bondapak C18) with a mobile phase of methanol:0.1 M ammonium formate, […]. The eluates were monitored for radioactivity and absorbance at 254 nm. Brain tissues were assayed using the same methodology, excepting that the samples were homogenised and de-proteinated prior to injection onto the HPLC column.

CSc1cccc(N([11CH3])C(=N)Nc2cc(SC)ccc2Cl)c1 [Compound 1, (N-(2-chloro-5-(methylthio)phenyl)-N′-(3-methylthio)phenyl)-N′-[N-methyl-^11C]-methylguanidine]
parent compound as share of the radioactivity in brain (20 minutes after i.v. injection): approximately 95%
parent compound as share of the radioactivity in brain (70 minutes after i.v. injection): ~90%
percentage of radioactivity associated with parent (10 min after i.v. injection): ~50%
percentage of radioactivity associated with parent (90 min after i.v. injection): ~5%
metabolism and clearance from the plasma (rat, i.v.): rapid metabolism and clearance
